Measured values published in ChEMBL document CHEMBL3044832, “Synthesis and Insecticidal Activity of N-(Tolyloxybenzyl)-pyrazolecarboxamide Derivatives” (J Pestic Sci, 1999).

Columns and labels:
[1] = test system: Myzus persicae; assay: Insecticidal activity against Myzus persicae (green peach aphid) assessed as insect mortality at 50 ppm; type: functional
[2] = test system: Myzus persicae; assay: Insecticidal activity against Myzus persicae (green peach aphid) assessed as insect mortality at 12.5 ppm; type: functional
[3] = test system: Myzus persicae; assay: Insecticidal activity against Myzus persicae (green peach aphid) assessed as insect mortality at 0.78 ppm; type: functional
[4] = test system: Myzus persicae; assay: Insecticidal activity against Myzus persicae (green peach aphid) assessed as insect mortality at 3.13 ppm; type: functional
[5] = Acute toxicity in Mus musculus (mouse); type: organism-based; conditions: in vivo
[6] = test system: Plutella xylostella; assay: Insecticidal activity against Plutella xylostella (diamondback moth) assessed as insect mortality at 50 ppm; type: functional
[7] = test system: Plutella xylostella; assay: Insecticidal activity against Plutella xylostella (diamondback moth) assessed as insect mortality at 12.5 ppm; type: functional
[8] = test system: Plutella xylostella; assay: Insecticidal activity against Plutella xylostella (diamondback moth) assessed as insect mortality at 3.13 ppm; type: functional
[9] = test system: Plutella xylostella; assay: Insecticidal activity against Plutella xylostella (diamondback moth) assessed as insect mortality at 0.78 ppm; type: functional

SMILES | mortality at 50 ppm [1] [%] | mortality at 12.5 ppm [2] [%] | mortality at 0.78 ppm [3] [%] | mortality at 3.13 ppm [4] [%] | LD50 [5] [mg/kg] | mortality at 50 ppm [6] [%] | mortality at 12.5 ppm [7] [%] | mortality at 3.13 ppm [8] [%] | mortality at 0.78 ppm [9] [%]
CCc1nn(C)c(C(=O)NCc2ccc(Oc3ccccc3C)cc2)c1Cl | 100 | 100 | 0 | 0 |  |  |  |  | 
CC1CCc2c1nn(C)c2C(=O)NCc1ccc(Oc2ccc(C(F)(F)F)cc2)cc1 (configuration not stated) |  |  |  |  | < 30 |  |  |  | 
Cc1ccc(Oc2ccc(CNC(=O)c3c(Cl)c(C)nn3C)cc2)cc1 | 100 | 100 | 0 | 0 |  |  |  |  | 
CCCc1nn(C)c(C(=O)NCc2ccc(Oc3ccc(C)cc3)cc2)c1Cl | 80 | 0 | 0 | 0 |  |  |  |  | 
Cc1ccc(Oc2ccc(CNC(=O)c3c(Cl)c(C(C)C)nn3C)cc2)cc1 | 100 | 30 | 0 | 0 |  |  |  |  | 
Cc1ccc(Oc2ccc(CNC(=O)c3c(Cl)c(C(C)(C)C)nn3C)cc2)cc1 | 30 | 0 | 0 | 0 |  |  |  |  | 
Cc1ccc(Oc2ccc(CNC(=O)c3c(Cl)c(C(F)(F)F)nn3C)cc2)cc1 | 0 | 0 | 0 | 0 |  |  |  |  | 
CCc1cc(C(=O)NCc2ccc(Oc3ccc(C)cc3)cc2)n(C)n1 | 30 | 0 | 0 | 0 |  |  |  |  | 
CCc1nn(C)c(C(=O)NCc2ccc(Oc3ccc(C)cc3)cc2)c1Br | 80 | 30 | 0 | 0 |  |  |  |  | 
CCc1nn(C)c(C(=O)NCc2ccc(Oc3ccc(C)cc3)cc2)c1OC | 100 | 100 | 0 | 100 |  |  |  |  | 
Cc1ccc(Oc2ccc(CNC(=O)c3c4c(nn3C)CCC4)cc2)cc1 | 100 | 30 | 0 | 0 |  |  |  |  | 
Cc1ccc(Oc2ccc(CNC(=O)c3c4c(nn3C)C(C)CC4)cc2)cc1 (configuration not stated) | 100 | 80 | 0 | 0 |  |  |  |  | 
CCC1CCc2c1nn(C)c2C(=O)NCc1ccc(Oc2ccc(C)cc2)cc1 (configuration not stated) | 80 | 30 | 0 | 0 |  |  |  |  | 
Cc1ccc(Oc2ccc(CNC(=O)c3c4ccccc4nn3C)cc2)cc1 | 0 | 0 | 0 | 0 |  |  |  |  | 
CCc1nn(C)c(C(=O)NCc2ccc(Sc3ccc(C)cc3)cc2)c1Cl | 100 | 100 | 30 | 0 |  | 30 | 30 | 0 | 0
CCc1nn(C)c(C(=O)NCc2ccc(Cc3ccc(C)cc3)cc2)c1Cl | 0 | 0 | 0 | 0 |  | 80 | 0 | 0 | 0
CCc1nn(C)c(C(=O)NCc2ccc(C(=O)c3ccc(C)cc3)cc2)c1Cl | 100 | 100 | 30 | 0 |  | 100 | 100 | 0 | 0
CCc1nn(C)c(C(=O)NCc2ccc(COc3ccc(C)cc3)cc2)c1Cl | 0 | 0 | 0 | 0 |  | 0 | 0 | 0 | 0
CCc1nn(C)c(C(=O)NCc2ccccc2Oc2ccccc2C)c1Cl | 0 | 0 | 0 | 0 |  |  |  |  | 
CCc1nn(C)c(C(=O)NCc2ccccc2Oc2cccc(C)c2)c1Cl | 0 | 0 | 0 | 0 |  |  |  |  | 
CCc1nn(C)c(C(=O)NCc2ccccc2Oc2ccc(C)cc2)c1Cl | 0 | 0 | 0 | 0 |  |  |  |  | 
CCc1nn(C)c(C(=O)NCc2cccc(Oc3ccccc3C)c2)c1Cl | 30 | 30 | 0 | 0 |  |  |  |  | 
CCc1nn(C)c(C(=O)NCc2cccc(Oc3cccc(C)c3)c2)c1Cl | 80 | 30 | 0 | 0 |  |  |  |  | 
CCc1nn(C)c(C(=O)NCc2cccc(Oc3ccc(C)cc3)c2)c1Cl | 80 | 80 | 0 | 30 |  |  |  |  | 
CCc1nn(C)c(C(=O)NCc2ccc(Oc3cccc(C)c3)cc2)c1Cl | 100 | 100 | 0 | 80 |  |  |  |  | 
CCc1nn(C)c(C(=O)NCc2ccc(Oc3ccc(C)cc3)cc2)c1Cl [TOLFENPYRAD] | 100 | 100 | 30 | 100 | > 100 | 100 | 100 | 30 | 0
